Reference: ChEMBL document CHEMBL1152981 (J Med Chem, 2009)
Activity calls are given as the source filed them. The rule behind the calls is not given here.

Tests used:
[1] = target: Glutamate NMDA receptor; test: Displacement of [3H]glycine from strychnine-insensitive glycine recognition site of NMDA receptor in rat brain cortex membrane; format: cell membranes
[2] = target: Glutamate NMDA receptor; test: Displacement of [3H]CGP39653 from glutamate recognition site of NMDA receptor in rat brain cortex membrane in presence of glycine antagonist 5,7-dichlorokynurenic acid; format: cell membranes
[3] = target: T1, Glutamate NMDA receptor (Rattus norvegicus) (UniProt P35439+Q00959+Q00960+Q00961+Q62645+Q8VHN2+Q9R1M7); test: Displacement of [3H]spermidine from polyamine site of NMDA receptor in rat brain cortex membrane; format: cell membranes
[4] = target: T1, Glutamate NMDA receptor (Rattus norvegicus); test: Displacement of [3H]MK-801 from ion channel site of NMDA receptor in rat brain cortex membrane; format: cell membranes
[5] = Partial agonist activity at glycine site of NMDA receptor in rat brain cortex membrane assessed as potentiation of [3H]Mk-801 binding by liquid scintillation counting; format: cell membranes
[6] = target: T1, Glutamate NMDA receptor (Rattus norvegicus); test: Displacement of [3H]glycine from strychnine-insensitive glycine recognition site of NMDA receptor in rat brain cortex membrane at 3 uM; format: cell membranes
[7] = target: T1, Glutamate NMDA receptor (Rattus norvegicus); test: Antagonist activity at glycine site of NMDA receptor in rat brain cortex membrane assessed as inhibition of [3H]Mk-801 binding by liquid scintillation counting in presence of antagonist 5,7-dichlorokynurenic acid

SMILES: CC(N)(CO)C(=O)O (stereo not given)
- pKi [1]: < 4

SMILES: CCCCCC/C=C/[C@H](N)C(=O)O
- pKi [1]: 5.9

SMILES: CC[C@@H](N)C(=O)O
- pKi [1]: < 4

SMILES: N[C@@H](/C=C/CCO)C(=O)O
- pKi [1]: 6.6

SMILES: C=CC[C@@H](N)C(=O)O
- pKi [1]: < 4

SMILES: NC(C(=O)O)C1CC1 (stereo not given)
- pKi [1]: < 4

SMILES: NC1(C(=O)O)CCCCC1
- pKi [1]: < 3

SMILES: CCc1ccccc1-c1cccc2[nH]c(C(=O)NC[C@@H](N)C(=O)O)cc12
- pKi [2]: 5.4
- pKi [1]: 7.6
- Activity [3]: inactive
- Activity [4]: inactive
- pEC50 [5]: 7.7

SMILES: N[C@H](CNC(=O)c1cc2ccccc2[nH]1)C(=O)O
- pKi [2]: 3.8
- pKi [1]: 5.3
- Activity [3]: inactive
- Activity [4]: inactive
- pEC50 [5]: 5.3

SMILES: N[C@@H](CNC(=O)c1cc2ccccc2[nH]1)C(=O)O
- pKi [1]: < 4

SMILES: CCC/C=C/[C@H](N)C(=O)O
- pKi [1]: 5.4

SMILES: N[C@H](CNC(=O)c1cc2c(Br)cccc2[nH]1)C(=O)O
- pKi [2]: 4.6
- pKi [1]: 7
- Activity [3]: inactive
- Activity [4]: inactive
- pEC50 [5]: 6.6

SMILES: CC(O)[C@@H](N)C(=O)O (stereo not given in full)
- Activity [6]: inactive

SMILES: COC[C@@H](N)C(=O)O
- Activity [6]: inactive

SMILES: CCNC(=O)NCC(N)C(=O)O (racemic)
- pKi [1]: < 4

SMILES: NC(CNC(=O)c1ccco1)C(=O)O (racemic)
- pKi [1]: 4.9
- Activity [3]: inactive
- Activity [4]: inactive
- pEC50 [5]: 5.1

SMILES: COC(=O)NCC(N)C(=O)O (racemic)
- pKi [1]: 4.1

SMILES: N#Cc1cccc2sc(C(=O)NCC(N)C(=O)O)cc12 (racemic)
- pKi [2]: < 4
- pKi [1]: 5.9
- Activity [3]: inactive
- Activity [4]: inactive
- pA2 [5]: 5.5

SMILES: NC(CNC(=O)c1cc2c(-c3ccc(Cl)cc3Cl)cccc2s1)C(=O)O (racemic)
- pKi [2]: < 4.5
- pKi [1]: 4.7
- Activity [3]: inactive
- Activity [4]: inactive
- pA2 [5]: 5.1

SMILES: NC(CNC(=O)c1cc2ccc(Cl)cc2[nH]1)C(=O)O (racemic)
- pKi [1]: 4.9

SMILES: NC(CNC(=O)c1cc2cccc(Cl)c2[nH]1)C(=O)O (racemic)
- pKi [1]: 5.5

SMILES: NC(CNC(=O)c1c[nH]c2ccccc12)C(=O)O (racemic)
- pKi [1]: 5.4
- Activity [3]: inactive
- Activity [4]: inactive

SMILES: NC(CNC(=O)c1cc2c(Cl)cccc2s1)C(=O)O (racemic)
- pKi [2]: < 4
- pKi [1]: 6.5

SMILES: COc1cccc2[nH]c(C(=O)NCC(N)C(=O)O)cc12 (racemic)
- pKi [2]: 4.1
- pKi [1]: 5.9

SMILES: CCCc1c(C(=O)NCC(N)C(=O)O)[nH]c2cccc(-c3ccccc3CC)c12 (racemic)
- pKi [2]: 5.3
- pKi [1]: 6.8

SMILES: CCCc1ccccc1-c1cccc2[nH]c(C(=O)NCC(N)C(=O)O)cc12 (racemic)
- pKi [2]: 5.4
- pKi [1]: 7.3
- pEC50 [5]: 7.6

SMILES: NC(CNC(=O)c1cc2cc(Cl)ccc2[nH]1)C(=O)O (racemic)
- pKi [1]: 4.7

SMILES: NC(CNC(=O)c1cc2c(Cl)ccc(Cl)c2[nH]1)C(=O)O (racemic)
- pKi [2]: 4
- pKi [1]: 6.8
- pA2 [5]: 6.2

SMILES: CCc1ccccc1-c1cccc2sc(C(=O)NCC(N)C(=O)O)cc12 (racemic)
- pKi [2]: 3.9
- pKi [1]: 6.2
- Activity [3]: inactive
- Activity [4]: inactive

SMILES: NC(CNC(=O)c1cc2c(Br)cccc2[nH]1)C(=O)O (racemic)
- pKi [2]: 4.7
- pKi [1]: 6.8

SMILES: Cn1c(C(=O)NCC(N)C(=O)O)cc2ccccc21 (racemic)
- pKi [1]: 4.9

SMILES: NC(CNC(=O)C1=Cc2ccccc2C1)C(=O)O (racemic)
- pKi [2]: < 4
- pKi [1]: 5.5

SMILES: NC(CNC(=O)Cc1c[nH]c2ccccc12)C(=O)O (racemic)
- pKi [1]: < 4

SMILES: NC(CNC(=O)c1ccc2ccccc2c1)C(=O)O (racemic)
- pKi [2]: < 4
- pKi [1]: 5.9
- Activity [3]: inactive
- Activity [4]: inactive

SMILES: NC(CNC(=O)c1cc2c(-c3ccccc3)cccc2[nH]1)C(=O)O (racemic)
- pKi [2]: 4.7
- pKi [1]: 5.6

SMILES: Cn1c(C(=O)NCC(N)C(=O)O)cc2c(Br)cccc21 (racemic)
- pKi [1]: 5

SMILES: NC(CNC(=O)C1Cc2ccccc2C1)C(=O)O (racemic)
- pKi [1]: < 4

SMILES: NC(CNC(=O)c1cc2c(Br)cccc2s1)C(=O)O (racemic)
- pKi [2]: < 4
- pKi [1]: 6.4
- Activity [3]: inactive
- Activity [4]: inactive

SMILES: NC(CNC(=O)c1ccc[nH]1)C(=O)O (racemic)
- pKi [1]: 4.9
- Activity [3]: inactive
- Activity [4]: inactive
- pEC50 [5]: 5

SMILES: NC(CNC(=O)Cc1c[nH]c2cccc(Br)c12)C(=O)O (racemic)
- pKi [2]: < 4
- pKi [1]: 4.3

SMILES: CCc1ccccc1-c1cccc2cc(C(=O)NCC(N)C(=O)O)ccc12 (racemic)
- pKi [2]: 4.5
- pKi [1]: 5.7

SMILES: NC(CNC(=O)c1cc2c(Cl)cccc2[nH]1)C(=O)O (racemic)
- pKi [2]: 4.1
- pKi [1]: 6

SMILES: Cc1ccccc1-c1cccc2[nH]c(C(=O)NCC(N)C(=O)O)cc12 (racemic)
- pKi [2]: 5.2
- pKi [1]: 6.5
- pEC50 [5]: 6.9

SMILES: COc1ccccc1-c1cccc2[nH]c(C(=O)NCC(N)C(=O)O)cc12 (racemic)
- pKi [2]: 4.3
- pKi [1]: 5.6

SMILES: CCc1ccccc1-c1ccc(Cl)c2[nH]c(C(=O)NCC(N)C(=O)O)cc12 (racemic)
- pKi [2]: < 4.5
- pKi [1]: 6.9

SMILES: NC(CNC(=O)c1cc2ccccc2o1)C(=O)O (racemic)
- pKi [2]: < 4
- pKi [1]: 5.2

SMILES: NC(CNC(=O)c1ccc2c(Br)cccc2c1)C(=O)O (racemic)
- pKi [2]: 4.3
- pKi [1]: 6.6

SMILES: CC(C)c1ccccc1-c1cccc2[nH]c(C(=O)NCC(N)C(=O)O)cc12 (racemic)
- pKi [2]: 5.6
- pKi [1]: 7.3

SMILES: CN(C)c1ccccc1-c1cccc2[nH]c(C(=O)NCC(N)C(=O)O)cc12 (racemic)
- pKi [2]: 4.1
- pKi [1]: 5.8
- pEC50 [5]: 6.5

SMILES: NC(CNC(=O)c1ccccn1)C(=O)O (racemic)
- pKi [1]: 4.4

SMILES: NC(CNC(=O)c1cccc2ccccc12)C(=O)O (racemic)
- pKi [2]: < 4
- pKi [1]: 5.9

SMILES: CCCc1c(C(=O)NCC(N)C(=O)O)[nH]c2ccccc12 (racemic)
- pKi [2]: 3.8
- pKi [1]: 6.3
- Activity [3]: inactive
- Activity [4]: inactive
- pA2 [5]: 5.7

SMILES: CCc1ccccc1-c1cccc2c1cc(C(=O)NCC(N)C(=O)O)n2C (racemic)
- pKi [1]: 3.9

SMILES: Cc1c(C(=O)NCC(N)C(=O)O)[nH]c2ccccc12 (racemic)
- pKi [1]: 5.5

SMILES: CCCc1c(C(=O)NCC(N)C(=O)O)[nH]c2cccc(Br)c12 (racemic)
- pKi [2]: 4.2
- pKi [1]: 6.5
- pA2 [5]: 6

SMILES: NC(CNC(=O)c1ccc2ccccc2n1)C(=O)O (racemic)
- pKi [2]: < 4
- pKi [1]: 5.6

SMILES: CCc1ccccc1-c1cccc2[nH]c(C(=O)NCC(N)C(=O)O)cc12 (racemic)
- pKi [2]: 4.9
- pKi [1]: 7.5

SMILES: NC(CNC(=O)c1cc2c(-c3ccccc3Cc3ccccc3)cccc2[nH]1)C(=O)O (racemic)
- pKi [2]: < 5.5
- pKi [1]: 6
- pEC50 [5]: 6.5

SMILES: NC(CNC(=O)c1[nH]c2cccc(Br)c2c1[N+](=O)[O-])C(=O)O (racemic)
- pKi [2]: 4.9
- pKi [1]: 6.1

SMILES: C[C@@H]1CN(O)C(=O)[C@@H]1N (relative stereo)
- Activity [7]: Active

SMILES: NC1(C(=O)O)CCC1 [1-AMINOCYCLOBUTANE CARBOXYLIC ACID]
- pKi [1]: 4.8

SMILES: NC1(C(=O)O)CC1 [1-Aminocyclopropane carboxylic acid]
- pKi [1]: 6.8

SMILES: NC1(C(=O)O)CCCC1 [CYCLOLEUCINE]
- pKi [1]: 2.7

SMILES: C[C@@H](N)C(=O)O [D-ALANINE]
- pKi [1]: 6.2
